Test results published in patent publication US20160287589A1, “SUBSTITUTED-IMIDAZOPYRIDAZINES” (BAYER PHARMA AKTIENGESELLSCHAFT, priority 2013, published 2016).
pIC50: −log10 of the molar value.

Tests used:
MKNK1 [1] = molecular target: T1, MKNK1 (Homo sapiens, UniProt Q9BUB5, T385D); test: MKNK1 kinase assay (MKNK1 TR-FRET assay); format: biochemical; conditions: 10 μM ATP, 15 min preincubation
T1 construct: GST (N); purchased Carna Biosciences 02-145; host or cells: insect cells (baculovirus expression system)

MKNK1 [2] = molecular target: T1, MKNK1; test: MKNK1 kinase high ATP assay (TR-FRET-based); format: biochemical; conditions: 2 mM ATP, 15 min preincubation
Summary of the method: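 GST-tagged full-length human MKNK1 (aa 1-424, T344D) from insect cells, preincubated with compound 15 min at 22 °C. Reaction 30 min at 22 °C with 2 mM ATP and 0.06 μM biotinylated peptide in HEPES pH 7.5, Mg2+, DTT. Phosphopeptide detected by TR-FRET (665/622 ratio) with anti-pS6 (pSer236) antibody; normalised to no-inhibitor and no-enzyme controls.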

T1 sequence (Q9BUB5 1-424 isoform Q9BUB5-2 T344D): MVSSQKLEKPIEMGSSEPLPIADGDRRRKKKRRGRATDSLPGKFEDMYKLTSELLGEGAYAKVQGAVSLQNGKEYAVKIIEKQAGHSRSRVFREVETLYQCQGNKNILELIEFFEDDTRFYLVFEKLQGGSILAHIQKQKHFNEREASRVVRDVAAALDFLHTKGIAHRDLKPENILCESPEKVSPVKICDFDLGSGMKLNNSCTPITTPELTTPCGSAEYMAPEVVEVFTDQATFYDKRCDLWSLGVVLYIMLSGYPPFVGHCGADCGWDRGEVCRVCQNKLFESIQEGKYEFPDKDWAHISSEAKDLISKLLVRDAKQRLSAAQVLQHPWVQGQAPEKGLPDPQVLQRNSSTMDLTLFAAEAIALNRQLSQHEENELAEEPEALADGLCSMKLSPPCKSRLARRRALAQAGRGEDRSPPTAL

Question: With `C[C@@H]1COCCN1c1cccc2oc(-c3cnc4ccc(OC[C@H]5CCC(=O)N5)nn34)cc12` [II-49, (5R)-5-{[(3-{4-[(3R)-3-methylmorpholin-4-yl]-1-benzofuran-2-yl}imidazo[1,2-b]pyridazin-6-yl)oxy]methyl}pyrrolidin-2-one] as the compound, how does the pIC50 (MKNK1 [1]; Table 1b) read?
Answer: The pIC50 was 8.28.

Question: What about the pIC50 (MKNK1 [2]; Table 2b) of the same compound?
Answer: The pIC50 was 7.92.

Question: What does the source list for `O=C(c1ccc[nH]1)N1CCC[C@H]1CCOc1ccc2ncc(-c3cc4ccccc4o3)n2n1` [Example I-61, [(2S)-2-(2-{[3-(1-Benzofuran-2-yl)imidazo[1,2-b]-pyridazin-6-yl]oxy}ethyl)pyrrolidin-1-yl](1H-pyrrol-2-yl)methanone]?
Answer: pIC50 (MKNK1 [1]; Table 1a): 8.54; pIC50 (MKNK1 [2]; Table 2a): 8.17

Question: `NC(=O)COc1ccc2ncc(-c3cc4ccccc4o3)n2n1` [Example I-24, 2-{[3-(1-Benzofuran-2-yl)imidazo[1,2-b]pyridazin-6-yl]oxy}acetamide] was tested. Which pIC50 (MKNK1 [1]; Table 1a) did it give?
Answer: The pIC50 was 7.90.

Question: And the pIC50 (MKNK1 [2]; Table 2a)?
Answer: Its pIC50 is 7.68.

Question: Which results are given for `C[C@H](N)COc1ccc2ncc(-c3cc4c(N5CCOC(C)(C)C5)cccc4o3)n2n1` [II-61, (2S)-1-({3-[4-(2,2-dimethylmorpholin-4-yl)-1-benzofuran-2-yl]imidazo[1,2-b]pyridazin-6-yl}oxy)propan-2-amine]?
Answer: pIC50 (MKNK1 [1]; Table 1b): 7.63; pIC50 (MKNK1 [2]; Table 2b): 7.18

Question: How did the pIC50 (MKNK1 [1]; Table 1a) turn out when `O=C(NCCOc1ccc2ncc(-c3cc4ccccc4o3)n2n1)C1CCOCC1` [Example I-66, N-(2-{[3-(1-Benzofuran-2-yl)imidazo[1,2-b]-pyridazin-6-yl]oxy}ethyl)tetrahydro-2H-pyran-4-carboxamide] was run?
Answer: The pIC50 was 8.14.

Question: And the pIC50 (MKNK1 [2]; Table 2a)?
Answer: Its pIC50 is 7.83.

Question: How did the pIC50 (MKNK1 [1]; Table 1c) turn out when `C[C@H](N)COc1ccc2ncc(-c3cc4c(N5CC[C@H](N(C)C)C5)nccc4o3)n2n1` [III-115, (3S)-1-[2-(6-{[(2S)-2-aminopropyl]oxy}imidazo [1,2-b]pyridazin-3-yl)furo[3,2-c]pyridin-4-yl]-N,N-dimethylpyrrolidin-3-amine] was run?
Answer: The pIC50 was 7.73.

Question: What about the pIC50 (MKNK1 [2]; Table 2c) of the same compound?
Answer: Its pIC50 is 7.08.

Question: `O=C1CNC[C@@H](COc2ccc3ncc(-c4cc5ccccc5o4)n3n2)N1` [Example I-29, (6S)-6-({[3-(1-Benzofuran-2-yl)imidazo[1,2-b]pyridazin-6-yl]oxy}methyl)-piperazin-2-one] was tested. Which pIC50 (MKNK1 [1]; Table 1a) did it give?
Answer: The pIC50 was 7.88.

Question: And the pIC50 (MKNK1 [2]; Table 2a)?
Answer: Its pIC50 is 7.47.

Question: `CC(C)Oc1nccc2oc(-c3cnc4ccc(OC[C@H]5CNCC(=O)N5)nn34)cc12` [IV-13, (6R)-6-[({3-[4-(Propan-2-yloxy)furo[3,2-c]pyridin-2-yl]imidazo[1,2-b]pyridazin-6-yl}oxy)methyl]piperazin-2-one] was tested. Which pIC50 (MKNK1 [1]; Table 1d) did it give?
Answer: The pIC50 was 7.66.

Question: And the pIC50 (MKNK1 [2]; Table 2d)?
Answer: The pIC50 was 7.37.

Question: With `CN1CCC(N(C)c2nccc3oc(-c4cnc5ccc(OC[C@H]6CCC(=O)N6)nn45)cc23)CC1` [III-65, (5R)-5-{[(3-{4-[Methyl(1-methylpiperidin-4-yl)amino]furo[3,2-c]pyridin-2-yl}imidazo[1,2-b]pyridazin-6-yl)oxy]methyl}pyrrolidin-2-one] as the compound, how does the pIC50 (MKNK1 [1]; Table 1c) read?
Answer: The pIC50 was 7.94.

Question: And the pIC50 (MKNK1 [2]; Table 2c)?
Answer: The pIC50 was 7.70.

Question: With `COCCN(C)c1nccc2oc(-c3cnc4ccc(OCCCS(C)(=O)=O)nn34)cc12` [III-52, N-(2-Methoxyethyl)-N-methyl-2-{6-[3-(methylsulfonyl)propoxy]imidazo[1,2-b]pyridazin-3-yl}furo[3,2-c]pyridin-4-amine] as the compound, how does the pIC50 (MKNK1 [1]; Table 1c) read?
Answer: Its pIC50 is 8.74.

Question: What about the pIC50 (MKNK1 [2]; Table 2c) of the same compound?
Answer: Its pIC50 is 8.43.

Question: With `C[C@H]1CN(c2cccc3oc(-c4cnc5ccc(OC[C@H]6CCC(=O)N6)nn45)cc23)CCN1` [II-53, (5R)-5-{[(3-{4-[(3S)-3-methylpiperazin-1-yl]-1-benzofuran-2-yl}imidazo[1,2-b]pyridazin-6-yl)oxy]methyl}pyrrolidin-2-one] as the compound, how does the pIC50 (MKNK1 [1]; Table 1b) read?
Answer: The pIC50 was 8.96.

Question: And the pIC50 (MKNK1 [2]; Table 2b)?
Answer: The pIC50 was 8.96.

Question: How did the pIC50 (MKNK1 [1]; Table 1a) turn out when `CC(C)(C)C(=O)N1CCC[C@H]1CCOc1ccc2ncc(-c3cc4cc(Cl)ccc4o3)n2n1` [Example I-40, 1-[(2S)-2-(2-{[3-(5-Chloro-1-benzofuran-2-yl)imidazo[1,2-b]pyridazin-6-yl]-oxy}ethyl)pyrrolidin-1-yl]-2,2-dimethylpropan-1-one] was run?
Answer: Its pIC50 is 7.59.

Question: What about the pIC50 (MKNK1 [2]; Table 2a) of the same compound?
Answer: The pIC50 was 7.12.
